In ChEMBL document CHEMBL5236646, “Design, synthesis, and biological evaluation of BRD4 degraders” (Bioorg Med Chem, 2023):
Calls of active or inactive are those of the source. The rule behind the calls is not given here.

Legend:
[1] = target: T1, Protein cereblon/Bromodomain-containing protein 4 (Homo sapiens) (UniProt O60885+Q96SW2); experiment: Protac activity at CRBN/BRD4 in human MM1.S cells assessed as induction of BRD4 protein degradation by measuring residual activity at 300 nM preincubated with lenalidomide for 2 hrs followed by compound addition and measured after 6 hrs by Western blot analysis (reference value: 100%); assay type: cell-based
MM1.S = experiment: Antiproliferative activity against human MM1.S cells assessed as inhibition of cell growth incubated for 72 hrs MTS assay; assay type: functional, cell-based
MRC5 = experiment: Inhibition of TGF-beta induced activation of human MRC5 cells assessed as downregulation of COL-1 protein expression at 0.1 to 10 uM by Western blot analysis; assay type: functional, cell-based; conditions: dose 0.1-10 µM
[2] = target: T1, Protein cereblon/Bromodomain-containing protein 4 (Homo sapiens); experiment: Protac activity at CRBN/BRD4 in human MM1.S cells assessed as downregulation of MYC protein expression at […] incubated for 3 hrs by Western blot analysis; assay type: cell-based
[3] = Inhibition of TGF-beta induced activation of human MRC5 cells assessed as residual BRD4 protein level at 10 uM by Western blot analysis (reference value: 100%); assay type: functional
[4] = target: T1, Protein cereblon/Bromodomain-containing protein 4 (Homo sapiens); experiment: Protac activity at CRBN/BRD4 in human MV4-11 cells assessed as induction of BRD4 protein degradation by measuring residual activity at 30 nM preincubated with lenalidomide for 2 hrs followed by compound addition and measured after 6 hrs by Western blot analysis (reference value: 100%); assay type: cell-based
[5] = target: T1, Protein cereblon/Bromodomain-containing protein 4 (Homo sapiens); experiment: Protac activity at CRBN/BRD4 in human MV4-11 cells assessed as induction of BRD4 protein degradation by measuring residual activity at 100 nM measured after 6 hrs by Western blot analysis (reference value: 100%); assay type: cell-based
[6] = target: T1, Protein cereblon/Bromodomain-containing protein 4 (Homo sapiens); experiment: Protac activity at CRBN/BRD4 in human MV4-11 cells assessed as induction of BRD4 protein degradation by measuring residual activity at 3 nM measured after 6 hrs by Western blot analysis (reference value: 100%); assay type: cell-based
[7] = target: T1, Protein cereblon/Bromodomain-containing protein 4 (Homo sapiens); experiment: Protac activity at CRBN/BRD4 in human MM1.S cells assessed as induction of BRD4 protein degradation by measuring residual activity at 0.01 uM incubated for 3 hrs by Western blot analysis relative to control; assay type: cell-based
[8] = Inhibition of TGF-beta induced activation of human MRC5 cells assessed as residual BRD4 protein level at 5 uM by Western blot analysis (reference value: 96%); assay type: functional
[9] = target: T1, Protein cereblon/Bromodomain-containing protein 4 (Homo sapiens); experiment: Protac activity at CRBN/BRD4 in human MV4-11 cells assessed as induction of BRD4 protein degradation by measuring residual activity at 30 nM measured after 1 hr by Western blot analysis (reference value: 100%); assay type: cell-based

T1 sequence (Q96SW2 whole entry, looked up, other chains not shown): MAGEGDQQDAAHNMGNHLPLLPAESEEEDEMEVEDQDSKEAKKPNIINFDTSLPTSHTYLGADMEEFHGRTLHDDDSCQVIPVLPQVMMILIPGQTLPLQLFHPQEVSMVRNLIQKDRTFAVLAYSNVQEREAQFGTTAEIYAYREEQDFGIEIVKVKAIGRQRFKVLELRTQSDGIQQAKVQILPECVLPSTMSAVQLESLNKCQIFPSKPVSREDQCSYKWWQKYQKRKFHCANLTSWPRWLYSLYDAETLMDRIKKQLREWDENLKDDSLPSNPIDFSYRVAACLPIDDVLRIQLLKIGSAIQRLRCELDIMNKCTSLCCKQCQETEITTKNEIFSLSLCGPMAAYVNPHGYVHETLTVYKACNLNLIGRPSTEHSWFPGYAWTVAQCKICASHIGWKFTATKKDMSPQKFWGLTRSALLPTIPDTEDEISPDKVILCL

What does the source list for Cc1sc2c(c1C)C(c1ccc(Cl)cc1)=N[C@@H](CC(=O)NCCCCC(=O)NCCNc1cccc3c1C(=O)N(C1CCC(=O)NC1=O)C3=O)c1nnc(C)n1-2 (stereo partly specified)?
Activity [1]: 67%; IC50 (MM1.S): 27 nM; inhibition (MRC5): Active; Activity [2]: inactive; Activity [3]: 25%; Activity [4]: 85%; Activity [5]: 28%; Activity [6]: 80%; Activity [7]: 93%; Activity [8]: 33%; Activity [9]: 62%
